Where two headings read alike, the source gives them in different places.
How the values were obtained:
HSALR strain 20b mice = assay: DM1 mouse efficacy study: RT-PCR of MBNL1-dependent splicing targets in gastrocnemius; assay type: in vivo; conditions: sc, 7.5 mg/kg qod 5 doses, subcutaneous
r(CUG)12-MBNL1 complex = assay: Inhibition of the r(CUG)12-MBNL1 complex measured by TR-FRET; assay type: biochemical; conditions: 80 nM RNA, 60 nM MBNL1-His6
[1] = tested on: MBNL1 exon 5 inclusion in DM1 myotubes; assay: Myotube splicing rescue assay (MBNL1 exon 5 inclusion); assay type: cell-based, human; conditions: 48-hour incubation

Row | SMILES | IC50 (r(CUG)12-MBNL1 complex; Table M) [µM] | MBNL1 % splicing rescue at 10 μM [1] [%] | further results
1 | CN(C)CCNS(=O)(=O)c1ccc2nc(-c3ccc(-c4nc5ccc(S(=O)(=O)NCCN(C)C)cc5[nH]4)cc3)[nH]c2c1 [Compound 275, 2,2′-(1,4-phenylene)bis(N-(2-(dimethylamino)ethyl)-1H-benzo[d]imidazole-6-sulfonamide)] | 24.3 | −6.5 | –
2 | CN(C)CCCOc1ccc2nc(-c3cc(O)c(-c4nc5ccc(OCCCN(C)C)cc5[nH]4)cc3O)[nH]c2c1 [Compound 278] | 38.1 | 48.2 | MBNL1 % splicing rescue at 1 μM [1]: 79.7%
3 | CN1CCN(c2ccc(-c3nc4cc(-c5ccc6[nH]c(-c7ccc(N8CCN(C)CC8)cc7)nc6c5)ccc4[nH]3)cc2)CC1 [Compound 334] | 14.2 | – | MBNL1 % splicing rescue at 1 μM [1]: 73.1%
4 | CN(C)CCCSc1ccc2nc(-c3ccc(-c4nc5ccc(SCCCN(C)C)cc5[nH]4)c4c3OCO4)[nH]c2c1 [Compound 306] | 12.1 | 11.7 | –
5 | CCOc1cc(-c2nc3cc(OCCCN(C)C)ccc3[nH]2)c(OCC)cc1-c1nc2cc(OCCCN(C)C)ccc2[nH]1 [Compound 314, (3-[[2-(4-[5-[3-(dimethylamino)propoxy]-1H-1,3-benzodiazol-2-yl]-2,5-diethoxyphenyl)-1H-1,3-benzodiazol-5-yl]oxy]propyl)dimethylamine] | 19.8 | 22.5 | –
6 | CN(C)CCCOc1ccc2nc(-c3ccc(-c4nc5ccc(OCCCN(C)C)cc5[nH]4)c4c3OCO4)[nH]c2c1 [Compound 305] | 7.6 | 58.8 | –
7 | CN(C)CCNC(=O)c1ccc2nc(-c3ccc(-c4nc5ccc(NC6=NCCN6C6=NCCN6)cc5[nH]4)cc3)[nH]c2c1 [Compound 148] | – | 1.7 | IC50 (r(CUG)12-MBNL1 complex; Table L): 7.4 µM
8 | O=C(NCCN1CCNCC1)c1ccc2nc(-c3ccc(-c4nc5ccc(C(=O)NCCN6CCNCC6)cc5[nH]4)cc3)[nH]c2c1 [Compound 47, 2,2′-(1,4-phenylene)bis(N-(2-(piperazin-1-yl)ethyl)-1H-benzo[d]imidazole-6-carboxamide)] | – | 12.8 | IC50 (r(CUG)12-MBNL1 complex; Table L): 6.8 µM
9 | COc1cc(-c2nc3ccc(OCCCN(C)C)cc3[nH]2)c(OC)cc1-c1nc2ccc(OCCCN(C)C)cc2[nH]1 [Compound 290] | 11.1 | 97.2 | –
10 | C[C@@H](NC(=O)CNCCCn1cc(CCCCN(C)CCNC(=O)c2ccc(-c3nc4cc(-c5ccc6[nH]c(-c7ccc(C(=O)NCCN(C)C)cc7)nc6c5)ccc4[nH]3)cc2)nn1)C(=O)N[C@H](C)C(=O)N[C@H](C)C(=O)N[C@H](C)C(=O)N(CCCn1cc(CCCCN(C)CCNC(=O)c2ccc(-c3nc4cc(-c5ccc6[nH]c(-c7ccc(C(=O)NCCN(C)C)cc7)nc6c5)ccc4[nH]3)cc2)nn1)CC(N)=O [Compound 460] | 1.3 | – | MBNL1 % splicing rescue at 5 μM [1]: −21.0%
11 | N=C(N)NCCNC(=O)c1ccc2nc(-c3ccc(-c4nc5ccc(C(=O)NCCNC(=N)N)cc5[nH]4)cc3)[nH]c2c1 [Compound 38] | – | 0.0 | IC50 (r(CUG)12-MBNL1 complex; Table L): 2.6 µM
12 | COc1cc(-c2nc3ccc(C(=O)NCCN(C)C)cc3[nH]2)c(OC)cc1-c1nc2cc(OCCCN(C)C)ccc2[nH]1 [Compound 298] | 23.5 | −41.8 | –
13 | C[N+](C)(C)CCOC(=O)c1ccc2nc(-c3ccc(-c4nc5ccc(C(=O)OCC[N+](C)(C)C)cc5[nH]4)cc3)[nH]c2c1 [Compound 55, 2,2′-((2,2′-(1,4-phenylene)bis(1H-benzo[d]imidazole-6,6′-carbonyl))bis(oxy))bis(N,N,N-trimethylethanaminium) chloride] | – | 12.0 | IC50 (r(CUG)12-MBNL1 complex; Table L): 4.2 µM
14 | O=C(NCCN1CCCCC1)c1ccc2nc(-c3ccc(-c4nc5ccc(C(=O)NCCN6CCCCC6)cc5[nH]4)c(F)c3)[nH]c2c1 [Compound 174] | 4.32 | 1.9 | MBNL1 % splicing rescue at 1 μM [1]: 5.2%
15 | Nc1cc(-c2nc3ccc(C(=O)NCCN4CCCCC4)cc3[nH]2)ccc1-c1nc2ccc(C(=O)NCCN3CCCCC3)cc2[nH]1 [Compound 176, 2,2′-(2-amino-1,4-phenylene)bis(N-(2-(piperidin-1-yl)ethyl)-1H-benzo[d]imidazole-6-carboxamide)] | 5.52 | −5.0 | –
16 | c1cc2nc(-c3ccc(-c4nc5ccc(NC6=NCCN6C6=NCCN6)cc5[nH]4)cc3)[nH]c2cc1NC1=NCCN1C1=NCCN1 [Compound 77] | – | 4.2 | IC50 (r(CUG)12-MBNL1 complex; Table L): 10.8 µM
17 | C[C@@H](NC(=O)CNCCCn1cc(CCCCN(C)CCNC(=O)c2ccc(-c3nc4cc(-c5ccc6[nH]c(-c7ccc(OCCCN(C)C)cc7)nc6c5)ccc4[nH]3)cc2)nn1)C(=O)N[C@H](C)C(=O)N[C@H](C)C(=O)N[C@H](C)C(=O)N(CCCn1cc(CCCCN(C)CCNC(=O)c2ccc(-c3nc4cc(-c5ccc6[nH]c(-c7ccc(OCCCN(C)C)cc7)nc6c5)ccc4[nH]3)cc2)nn1)CC(N)=O [Compound 461] | 2.5 | −35.5 | –
18 | O=C(NCCN1CCCC1)c1ccc(-c2nc3cc(-c4ccc5[nH]c(-c6ccc(C(=O)NCCN7CCCC7)cc6)nc5c4)ccc3[nH]2)cc1 [Compound 115] | – | 57.5 | IC50 (r(CUG)12-MBNL1 complex; Table L): 7.1 µM
19 | Nc1ccc(-c2nc3cc(-c4ccc5[nH]c(-c6ccc(NC7=NCCN7C7=NCCN7)cc6)nc5c4)ccc3[nH]2)cc1 [Compound 160] | – | 63.0 | IC50 (r(CUG)12-MBNL1 complex; Table L): 19.2 µM
20 | CN(C)CCNC(=O)c1ccc(-c2nc3cc(-c4ccc5[nH]c(-c6ccc(C(=O)NCCN(C)CCCCc7cn(CCCNC(=O)CCC(=O)NCCCn8cc(CCCCN(C)CCNC(=O)c9ccc(-c%10nc%11cc(-c%12ccc%13[nH]c(-c%14ccc(C(=O)NCCN(C)C)cc%14)nc%13c%12)ccc%11[nH]%10)cc9)nn8)nn7)cc6)nc5c4)ccc3[nH]2)cc1 [Compound 408] | 0.51 | – | MBNL1 % splicing rescue at 1 μM [1]: 3.9%
21 | O=C(NCCN1CCCCC1)c1ccc2nc(-c3ccc(-c4nc5ccc(C(=O)NCCN6CCNCC6)cc5[nH]4)cc3)[nH]c2c1 [Compound 126, N-(2-(piperazin-1-yl)ethyl)-2-(4-(6-((2-(piperidin-1-yl)ethyl)carbamoyl)-1H-benzo[d]imidazol-2-yl)phenyl)-1H-benzo[d]imidazole-6-carboxamide] | – | 29.6 | IC50 (r(CUG)12-MBNL1 complex; Table L): 9.5 µM; MBNL1 % splicing rescue at 1 μM [1]: 16.6%
22 | NCCN1CCN(CCNC(=O)c2ccc3nc(-c4ccc(-c5nc6ccc(C(=O)NCCN7CCCCC7)cc6[nH]5)cc4)[nH]c3c2)CC1 [Compound 185, N-(2-(4-(2-aminoethyl)piperazin-1-yl)ethyl)-2-(4-(6-((2-(piperidin-1-yl)ethyl)carbamoyl)-1H-benzo[d]imidazol-2-yl)phenyl)-1H-benzo[d]imidazole-6-carboxamide] | 8.13 | 39.2 | –

Continued, in another order:

Row | IC50 (r(CUG)12-MBNL1 complex; Table M) [µM] | SMILES | MBNL1 % splicing rescue at 10 μM [1] [%] | further results
23 | 6.45 | CN(C)CCCOc1ccc(-c2nc3cc(-c4ccc5[nH]c(-c6ccc(C(=O)NCCN(C)C)cc6)nc5c4)ccc3[nH]2)cc1 [Compound 346] | 74.8 | percent splicing rescue at 7.5 mg/kg (HSALR strain 20b mice; read-out: Clcn1 exon 7a splicing rescue %): 105%; percent splicing rescue at 7.5 mg/kg (HSALR strain 20b mice; read-out: Mbnl1 exon 5 splicing rescue %): 11.8%; percent splicing rescue at 7.5 mg/kg (HSALR strain 20b mice; read-out: Serca1 exon 22 splicing rescue %): 22.3%; MBNL1 % splicing rescue at 1 μM [1]: 79.9%
24 | 10.9 | CC(=O)NCCCn1cc(CCCCN(C)CCNC(=O)c2ccc(-c3nc4cc(-c5ccc6[nH]c(-c7ccc(C(=O)NCCN(C)C)cc7)nc6c5)ccc4[nH]3)cc2)nn1 [Compound 402] | – | MBNL1 % splicing rescue at 5 μM [1]: −33.8%
25 | 18.9 | CN(C)CCCOc1ccc2nc(-c3ccc(-c4nc5ccc(OCCCC(=O)OC(C)(C)C)cc5[nH]4)cc3)[nH]c2c1 [Compound 252, tert-butyl 4-((2-(4-(5-(3-(dimethylamino)propoxy)-1H-benzo[d]imidazol-2-yl)phenyl)-1H-benzo[d]imidazol-5-yl)oxy)butanoate] | 13.0 | –
26 | 12.9 | CN(C)CCCCCOc1ccc2nc(-c3ccc(-c4nc5ccc(OCCCCCN(C)C)cc5[nH]4)cc3)[nH]c2c1 [Compound 192] | 111.7 | –
27 | 8.03 | CN1CCC(COc2ccc(-c3nc4cc(-c5ccc6[nH]c(-c7ccc(OCC8CCN(C)CC8)cc7)nc6c5)ccc4[nH]3)cc2)CC1 [Compound 336] | 77.0 | MBNL1 % splicing rescue at 1 μM [1]: 59.0%
28 | 20.7 | CN(C)CCCOc1ccc2[nH]c(-c3ccc(-c4nc5cc(OCCCN(C)C)ccc5[nH]4)c4c3OCCO4)nc2c1 [Compound 316] | 87.1 | –
29 | 3.7 | C#CCOc1cc(-c2nc3ccc(OCCCN(C)C)cc3[nH]2)ccc1-c1nc2ccc(OCCCN(C)C)cc2[nH]1 [Compound 255, 3,3′-((2,2′-(2-(prop-2-yn-1-yloxy)-1,4-phenylene)bis(1H-benzo[d]imidazole-6,2-diyl))bis(oxy))bis(N,N-dimethylpropan-1-amine)] | 89.2 | –
30 | 10.7 | CN(C)CCCOc1ccc2nc(-c3ccc(-c4nc5ccc(OCCCN(C)C)cc5[nH]4)c(O)c3)[nH]c2c1 [Compound 256, 2,5-bis(6-(3-(dimethylamino)propoxy)-1H-benzo[d]imidazol-2-yl)phenol] | 90.6 | –
31 | 7.2 | CN(C)CCCOc1ccc2nc(-c3ccc(-c4nc5ccc(OCCCN(C)C)cc5[nH]4)c(OCCO)c3)[nH]c2c1 [Compound 259, 2-(2,5-bis(6-(3-(dimethylamino)propoxy)-1H-benzo[d]imidazol-2-yl)phenoxy)ethanol] | −12.7 | –
32 | 12.8 | CN(C)CCCCCOc1ccc(-c2nc3cc(-c4ccc5[nH]c(-c6ccc(OCCCCCN(C)C)cc6)nc5c4)ccc3[nH]2)cc1 [Compound 371] | 72.4 | MBNL1 % splicing rescue at 1 μM [1]: 79.7%
